# Tested on: ER-alpha MCF7
# Assay: ER-alpha MCF7 HCS EC50; stated as measured by in vitro cell proliferation assays of Examples 902 and 903
# Format: cell-based
# Details: Homo sapiens, MCF7, MCF7 cells; Table 2
# In short: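 MCF7 cells seeded 1000-2000 cells/well for 16 h, then treated with nine-point 1:2 DMSO dilution series in quadruplicate at 37 °C, 5% CO2 for 4 days. Viable cells quantified by CellTiter-Glo ATP luminescence; EC50 calculated. Controls: fulvestrant at final 100 nM, DMSO 0.2% v/v.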
row,Structure (SMILES),EC50
1,"CC(C)(F)CN1[C@H](CF)Cc2c([nH]c3ccccc23)[C@H]1c1c(F)cc(OC2CN(CCCF)C2)cc1F [Example 301, (1R,3S)-1-(2,6-difluoro-4-((1-(3-fluoropropyl)azetidin-3-yl)oxy)phenyl)-2-(2-fluoro-2-methylpropyl)-3-(fluoromethyl)-2,3,4,9-tetrahydro-1H-pyrido[3,4-b]indole]",0.0881 nM
2,"C[C@@H]1Cc2c([nH]c3ccccc23)[C@@H](c2c(F)cc(OC3CN(CCCF)C3)cc2F)N1CC(F)(F)CO [Example 302, 3-((1R,3R)-1-(2,6-difluoro-4-((1-(3-fluoropropyl)azetidin-3-yl)oxy)phenyl)-3-methyl-3,4-dihydro-1H-pyrido[3,4-b]indol-2(9H)-yl)-2,2-difluoropropan-1-ol]",0.12 nM
3,"C[C@@H]1Cc2c([nH]c3ccccc23)[C@@H](c2c(F)cc(OC3CN(CCCF)C3)cc2F)N1CC(F)F [Example 303, (1R,3R)-2-(2,2-difluoroethyl)-1-[2,6-difluoro-4-[1-(3-fluoropropyl)azetidin-3-yl]oxy-phenyl]-3-methyl-1,3,4,9-tetrahydropyrido[3,4-b]indole]",0.0482 nM
4,"C[C@@H]1Cc2c([nH]c3ccccc23)[C@@H](c2c(F)cc(NC3CN(CCCF)C3)cc2F)N1CC(F)(F)F [Example 304, N-(3,5-difluoro-4-((1R,3R)-3-methyl-2-(2,2,2-trifluoroethyl)-2,3,4,9-tetrahydro-1H-pyrido[3,4-b]indol-1-yl)phenyl)-1-(3-fluoropropyl)azetidin-3-amine]",0.224 nM
5,"C[C@@H]1Cc2c([nH]c3ccccc23)[C@@H](c2c(F)cc(OCCN3CC(CF)C3)cc2F)N1CC(F)F [Example 305, (1R,3R)-2-(2,2-difluoroethyl)-1-[2,6-difluoro-4-[2-[3-(fluoromethyl)azetidin-1-yl]ethoxy]phenyl]-3-methyl-1,3,4,9-tetrahydropyrido[3,4-b]indole]",0.216 nM
6,"C[C@@H]1Cc2c([nH]c3ccccc23)[C@H](c2c(F)cc(OCCN3CC(CF)C3)cc2F)N1CC(F)F [Example 306, (1S,3R)-2-(2,2-difluoroethyl)-1-[2,6-difluoro-4-[2-[3-(fluoromethyl)azetidin-1-yl]ethoxy]phenyl]-3-methyl-1,3,4,9-tetrahydropyrido[3,4-b]indole]",3 nM
7,"C[C@@H]1Cc2c([nH]c3ccccc23)[C@@H](c2c(F)cc(OC3CN(C4CC(F)(F)C4)C3)cc2F)N1CC(C)(C)F [Example 307, (1R,3R)-1-[4-[1-(3,3-difluorocyclobutyl)azetidin-3-yl]oxy-2,6-difluoro-phenyl]-2-(2-fluoro-2-methyl-propyl)-3-methyl-1,3,4,9-tetrahydropyrido[3,4-b]indole]",0.193 nM
8,"C[C@@H]1Cc2c([nH]c3ccccc23)[C@@H](c2c(F)cc(OC3CN(C/C=C/F)C3)cc2F)N1CC(C)(C)F [Example 308, (1R,3R)-1-[2,6-difluoro-4-[1-[(E)-3-fluoroallyl]azetidin-3-yl]oxy-phenyl]-2-(2-fluoro-2-methyl-propyl)-3-methyl-1,3,4,9-tetrahydropyrido[3,4-b]indole]",0.127 nM
9,"CC(CN1[C@H](c2c(F)cc(OC3CN(CCCF)C3)cc2F)c2[nH]c3ccccc3c2C[C@H]1C)S(C)(=O)=O (stereo partly drawn) [Example 309, (1R,3R)-1-(2,6-difluoro-4-((1-(3-fluoropropyl)azetidin-3-yl)oxy)phenyl)-3-methyl-2-(2-(methylsulfonyl)propyl)-2,3,4,9-tetrahydro-1H-pyrido[3,4-b]indole]",6 nM
10,"C[C@@H]1Cc2c([nH]c3ccccc23)[C@@H](c2ccc(NC3CN(CCCF)C3)cc2)N1S(C)(=O)=O [Example 310, 1-(3-fluoropropyl)-N-[4-[(1R,3R)-3-methyl-2-methylsulfonyl-1,3,4,9-tetrahydropyrido[3,4-b]indol-1-yl]phenyl]azetidin-3-amine]",0.708 nM
11,"C[C@@H]1Cc2c([nH]c3ccccc23)[C@@H](c2c(F)cc(NC3CN(CCCF)C3)cc2F)N1S(C)(=O)=O [Example 311, N-[3,5-difluoro-4-[(1R,3R)-3-methyl-2-methylsulfonyl-1,3,4,9-tetrahydropyrido[3,4-b]indol-1-yl]phenyl]-1-(3-fluoropropyl)azetidin-3-amine]",0.248 nM
12,"C=CS(=O)(=O)N1[C@H](c2ccc(OCCN3CC(CF)C3)cc2)c2[nH]c3ccccc3c2C[C@H]1C [Example 312, (1R,3R)-1-[4-[2-[3-(fluoromethyl)azetidin-1-yl]ethoxy]phenyl]-3-methyl-2-vinylsulfonyl-1,3,4,9-tetrahydropyrido[3,4-b]indole]",2 nM
13,"CNS(=O)(=O)N1[C@H](c2ccc(OCCN3CC(CF)C3)cc2)c2[nH]c3ccccc3c2C[C@H]1C [Example 313, (1R,3R)-1-[4-[2-[3-(fluoromethyl)azetidin-1-yl]ethoxy]phenyl]-N,3-dimethyl-1,3,4,9-tetrahydropyrido[3,4-b]indole-2-sulfonamide]",1 nM
14,"C[C@@H]1Cc2c([nH]c3ccccc23)[C@H](c2ccc(NC3CN(CCCF)C3)cc2)N1S(C)(=O)=O [Example 314, 1-(3-fluoropropyl)-N-[4-[(1S,3R)-3-methyl-2-methylsulfonyl-1,3,4,9-tetrahydropyrido[3,4-b]indol-1-yl]phenyl]azetidin-3-amine]",9 nM
15,"C[C@@H]1Cc2c([nH]c3ccccc23)[C@H](c2c(F)cc(NC3CN(CCCF)C3)cc2F)N1S(C)(=O)=O [Example 315, N-[3,5-difluoro-4-[(1S,3R)-3-methyl-2-methylsulfonyl-1,3,4,9-tetrahydropyrido[3,4-b]indol-1-yl]phenyl]-1-(3-fluoropropyl)azetidin-3-amine]",2 nM
16,"C[C@@H]1Cc2c([nH]c3ccccc23)[C@@H](c2c(F)cc(OC3CN(CCCF)C3)cc2F)N1CC(C)(C)C#N [Example 316, 3-[(1R,3R)-1-[2,6-difluoro-4-[1-(3-fluoropropyl)azetidin-3-yl]oxy-phenyl]-3-methyl-1,3,4,9-tetrahydropyrido[3,4-b]indol-2-yl]-2,2-dimethyl-propanenitrile]",0.0724 nM
17,"C[C@@H]1Cc2c([nH]c3ccccc23)[C@@H](c2c(F)cc(OC3CN(CC=C(F)F)C3)cc2F)N1CC(C)(C)F [Example 317, (1R,3R)-1-[4-[1-(3,3-difluoroallyl)azetidin-3-yl]oxy-2,6-difluoro-phenyl]-2-(2-fluoro-2-methyl-propyl)-3-methyl-1,3,4,9-tetrahydropyrido[3,4-b]indole]",0.181 nM
18,"C[C@@H]1Cc2c([nH]c3ccccc23)[C@@H](c2c(F)cc(OCCN3CC(CF)C3)cc2F)N1C[C@@H](CO)C(F)(F)F [Example 318, (S)-2-(((1R,3R)-1-(2,6-difluoro-4-(2-(3-(fluoromethyl)azetidin-1-yl)ethoxy)phenyl)-3-methyl-1,3,4,9-tetrahydro-2H-pyrido[3,4-b]indol-2-yl)methyl)-3,3,3-trifluoropropan-1-ol]",1 nM
19,"C[C@@H]1Cc2c([nH]c3ccccc23)[C@@H](c2c(F)cc(OCCN3CC(CF)C3)cc2F)N1C[C@H](CO)C(F)(F)F [Example 319, (R)-2-(((1R,3R)-1-(2,6-difluoro-4-(2-(3-(fluoromethyl)azetidin-1-yl)ethoxy)phenyl)-3-methyl-1,3,4,9-tetrahydro-2H-pyrido[3,4-b]indol-2-yl)methyl)-3,3,3-trifluoropropan-1-ol]",0.43 nM
20,"C[C@@H]1Cc2c([nH]c3ccccc23)[C@@H](c2c(F)cc(NCCN3CC(CF)C3)cc2F)N1CC(C)(F)CO (stereo partly drawn) [Example 320, 3-((1R,3R)-1-(2,6-difluoro-4-((2-(3-(fluoromethyl)azetidin-1-yl)ethyl)amino)phenyl)-3-methyl-1,3,4,9-tetrahydro-2H-pyrido[3,4-b]indol-2-yl)-2-fluoro-2-methylpropan-1-ol]",0.27 nM
21,"C[C@@H]1Cc2c([nH]c3ccccc23)[C@@H](c2c(F)cc(NCCN3CC(CF)C3)cc2F)N1CC(C)(C)F [Example 321, 3,5-difluoro-N-[2-[3-(fluoromethyl)azetidin-1-yl]ethyl]-4-[(1R,3R)-2-(2-fluoro-2-methyl-propyl)-3-methyl-1,3,4,9-tetrahydropyrido[3,4-b]indol-1-yl]aniline]",0.222 nM
22,"C[C@@H]1Cc2c([nH]c3ccccc23)[C@@H](c2ccc(NCCN3CC(CF)C3)cc2F)N1CC(C)(C)F [Example 322, 3-fluoro-N-[2-[3-(fluoromethyl)azetidin-1-yl]ethyl]-4-[(1R,3R)-2-(2-fluoro-2-methyl-propyl)-3-methyl-1,3,4,9-tetrahydropyrido[3,4-b]indol-1-yl]aniline]",0.0253 nM
23,"C[C@@H]1Cc2c([nH]c3ccccc23)[C@@H](c2ccc(NCCN3CC(CF)C3)cc2)N1CC(C)(C)F [Example 323, N-[2-[3-(fluoromethyl)azetidin-1-yl]ethyl]-4-[(1R,3R)-2-(2-fluoro-2-methyl-propyl)-3-methyl-1,3,4,9-tetrahydropyrido[3,4-b]indol-1-yl]aniline]",0.215 nM
24,"CCS(=O)(=O)N1[C@H](c2ccc(OCCN3CC(CF)C3)cc2)c2[nH]c3ccccc3c2C[C@H]1C [Example 324, (1R,3R)-2-ethylsulfonyl-1-[4-[2-[3-(fluoromethyl)azetidin-1-yl]ethoxy]phenyl]-3-methyl-1,3,4,9-tetrahydropyrido[3,4-b]indole]",0.198 nM
25,"C[C@@H]1Cc2c([nH]c3ccccc23)[C@@H](c2ccc(NCCN3CC(CF)C3)cc2)N1S(C)(=O)=O [Example 325, N-[2-[3-(fluoromethyl)azetidin-1-yl]ethyl]-4-[(1R,3R)-3-methyl-2-methylsulfonyl-1,3,4,9-tetrahydropyrido[3,4-b]indol-1-yl]aniline]",1 nM
26,"C[C@@H]1Cc2c([nH]c3ccccc23)[C@@H](c2c(F)cc(NCCN3CC(CF)C3)cc2F)N1S(C)(=O)=O [Example 326, 3,5-difluoro-N-[2-[3-(fluoromethyl)azetidin-1-yl]ethyl]-4-[(1R,3R)-3-methyl-2-methylsulfonyl-1,3,4,9-tetrahydropyrido[3,4-b]indol-1-yl]aniline]",0.305 nM

# — patent US20250114338A1, “TETRAHYDRO-PYRIDO[3,4-b]INDOLE ESTROGEN RECEPTOR MODULATORS AND USES THEREOF” (Genentech, Inc., priority 2014, published 2025)
